# Reference: PMC7269146, “Jingzhaotoxin-X, a gating modifier of Kv4.2 and Kv4.3 potassium channels purified from the venom of the Chinese tarantula Chilobrachys jingzhao” (The Journal of Venomous Animals and Toxins Including …, 2020)
# Where a SMILES comes first, the peptide text is derived from it. Bridges are numbered along the chain shown (N, C = ends).
# Target: T1, Kv4.2 (Rattus norvegicus, UniProt Q63881)
# T1 construct: expressed in transfected cells; host or cells: HEK293t
# T1 sequence (Q63881 1-630): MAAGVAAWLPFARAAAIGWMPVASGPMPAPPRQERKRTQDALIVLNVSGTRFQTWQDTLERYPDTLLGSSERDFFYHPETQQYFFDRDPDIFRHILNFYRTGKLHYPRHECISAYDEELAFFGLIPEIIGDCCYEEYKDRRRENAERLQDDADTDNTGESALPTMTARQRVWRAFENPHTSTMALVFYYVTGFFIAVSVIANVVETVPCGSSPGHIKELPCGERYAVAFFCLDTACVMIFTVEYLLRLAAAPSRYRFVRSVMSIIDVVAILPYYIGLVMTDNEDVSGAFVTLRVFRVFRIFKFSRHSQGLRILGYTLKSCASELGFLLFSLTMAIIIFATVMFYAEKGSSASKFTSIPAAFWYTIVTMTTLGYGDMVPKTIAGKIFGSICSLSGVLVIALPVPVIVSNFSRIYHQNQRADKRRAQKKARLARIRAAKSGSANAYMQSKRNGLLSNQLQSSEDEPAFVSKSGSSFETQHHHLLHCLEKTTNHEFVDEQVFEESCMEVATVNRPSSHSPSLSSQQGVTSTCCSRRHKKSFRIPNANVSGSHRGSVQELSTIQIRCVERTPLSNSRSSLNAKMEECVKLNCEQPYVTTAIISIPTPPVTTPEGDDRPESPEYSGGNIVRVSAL
# Assay: kinetic constants of JZTX-X at Kv4.2 channel (wash-in / wash-out)
# Type: cell-based
# Conditions: test conc. 0.2 μM, n = 6
# Excerpt: Rat cDNA genes encoding Kv4.2 (Accession: NM_031730.2) and Kv4.3 (Accession: AB003587.1) were subcloned to vector pcDNA3.1. In addition, human cDNA genes encoding Nav1.7 (Accession: DQ857292.1) and Nav1.5 (Accession: AB158469.2) were subcloned to vectors pcDNA3.1-mod and pcDNA3.1, separately. Then, Kv4.2, Kv4.3, Nav1.5 and Nav1.7 constructs were transiently transfected into the human embryonic kidney 293t (HEK293t) cells using lipofectamine 2000 (Invitrogen, USA) in accordance with manufacturer protocols. Thereafter, HEK293 cells were inoculated within Dulbecco’s modified Eagle’s medium (DMEM) containing 10% fetal bovine serum (FBS) at 5% CO2 and 37°C. The Kv4.3 channel and the Kv4.2 counterpart were then transfected in the absence of β subunit. Subsequently, cells were incubated with a DNA-lipofectamine mixture (one reporter plasmid for green fluorescence protein and channel constructs) for 4-6 h, and were washed with the fresh medium.
# An EPC-10 patch-clamp amplifier (HEKA, Germany) was employed to record the potassium currents at the configuration of whole-cell patch-clamp under an ambient temperature of 22-25°C. The resistance was 2.0-3.0 MΩ when the recording pipette contained a full volume of internal solution (supplemented with 140 mM KCl, 10 mM HEPES, 2.5 mM MgCl2, 5 mM ATP and 11 mM EGTA). KOH was utilized to adjust the pH to 7.2, while sucrose was employed to adjust the osmolarity to 310 mOsm/L. The culture medium was replaced with an external solution containing 150 mM NaCl, 2.5 mM CaCl2, 10 mM HEPES, 2 mM MgCl2, 5 mM KCl, and 10 mM D-glucose. Similarly, sucrose and NaOH were applied to adjust the osmolarity to 330 mOsm/L and pH to 7.4. […] The series resistance was maintained at about 5 MΩ, with 65-70% compensation. Finally, the leakage currents and linear capacitance were subtracted digitally according to the P/4 protocol.
# As for kinetic calculations, curves as a function of peak currents vs. time were plotted from the toxin wash-out or wash-in moments. The software Sigmaplot 9.0 (Sigma, USA) was utilized to fit data to the first-order exponential equation. […]
smiles,measurement,setting,value
"CC(C)C[C@@H]1NC(=O)[C@H](CCCCN)NC(=O)[C@H](Cc2ccc(O)cc2)NC(=O)[C@@H]2CSSC[C@@H]3NC(=O)[C@H](Cc4ccc(O)cc4)NC(=O)[C@H](Cc4ccccc4)NC(=O)CNC(=O)[C@H](C)NC(=O)[C@H](CSSC[C@H](NC(=O)[C@@H](N)CC(C)C)C(=O)N[C@@H](CO)C(=O)N[C@@H](CCCNC(=N)N)C(=O)N[C@@H](CCC(=O)O)C(=O)NCC(=O)N[C@@H](CCC(=O)O)C(=O)N[C@@H](Cc4ccccc4)C(=O)N2)NC(=O)[C@H](CSSC[C@@H](C(=O)N[C@@H](Cc2ccc(O)cc2)C(=O)N[C@@H](CCCNC(=N)N)C(=O)N[C@@H](CC(N)=O)C(=O)O)NC(=O)[C@H](Cc2c[nH]cn2)NC(=O)[C@H](CC(C)C)NC(=O)[C@H](C(C)C)NC(=O)[C@H](Cc2ccccc2)NC(=O)[C@H](C)NC(=O)[C@H](CCCCN)NC3=O)NC(=O)[C@H](CCCCN)NC(=O)[C@H](CCCNC(=N)N)NC1=O [JZTX-X, Jingzhaotoxin-X] (H-LCSREGEFCYKLRKCCAGFYCKAFVLHCYRN-OH; disulfide 2-16, 9-21, 15-28; N-terminus assumed)","kmod, Kv4.2 channel",inverse of τ of toxin wash-in,0.089 ± 0.007 s⁻¹
same,koff,inverse of τ of toxin wash-out,0.008 ± 0.0006 s⁻¹
same,Kd (kinetic dissociation constant),"method text: Kd = koff / kon, read-out: ki, Kv4.2 channel",95 ± 30 nM
